Counter-ions that a name gives are not always drawn.
Columns and labels:
hNET = target: T1, hNET (Homo sapiens, UniProt P23975); test: NET radioligand binding assay ([3H]nisoxetine, HEK-293 membranes); conditions: recombinant HEK-293 membranes
T1 construct: expressed in transfected cells; host or cells: HEK-293
Protocol: (§1) Recombinant HEK-293 cells expressing either the hSERT, hDAT, or hNET proteins were harvested from T-175 flasks as follows. The medium was removed from the flasks and the cells rinsed with HBSS without Ca and without Mg. The cells were then incubated for 5-10 minutes in 10 mM Tris-Cl, pH 7.5, 5 mM EDTA before the cells were lifted with a combination of pipetting and scraping, as needed. The cell suspension was collected into centrifuge bottles and homogenized for 30 seconds with a Polytron homogenizer. The suspension was centrifuged for 30 minutes at 32,000×g, 4° C. The supernatant was decanted and the pellet resuspended and homogenized in 50 mM Tris-Cl, pH 7.5, 1 mM EDTA for 10 seconds. […]
(§2) Compounds were dissolved in 100% DMSO at a concentration 100 times the desired highest assay concentration, serially diluted 1:3 in 100% DMSO, and 1.0 μl/well of each solution was dispensed to a Nunc polypropylene, round bottom, 384-well plate. […] The plates were air-dried overnight, 12 μl/well of MicroScint scintillation fluid added, and the plates counted in a Trilux.
(§3) The raw data was normalized to percent inhibition using control wells defining 0% (DMSO only) and 100% (selective inhibitor) inhibition which were run on each plate. […] The radioligand concentration chosen for each assay corresponds to the Kd concentration determined through saturation binding analysis for each assay.

hDAT = target: T2, hDAT (Homo sapiens, UniProt Q01959); test: DAT radioligand binding assay ([125I]RTI-55, HEK-293 membranes); conditions: recombinant HEK-293 membranes
T2 construct: expressed in transfected cells; host or cells: HEK-293
Protocol: as §1
as §2, with “0.4” for “1.0”
as §3

hSERT = target: T3, hSERT (Homo sapiens, UniProt P31645); test: SERT radioligand binding assay ([125I]RTI-55, HEK-293 membranes); conditions: recombinant HEK-293 membranes
T3 construct: expressed in transfected cells; host or cells: HEK-293
Protocol: as §1, with “seconds. The suspension was then centrifuged again for 30 minutes at 32,000×g, 4° C. The supernatant was decanted and the pellet resuspended in 50 mM Tris-Cl, pH 7.5, 1 mM EDTA and briefly homogenized.” for “seconds.”
as §2, with “0.4” for “1.0”
The radioligand concentration chosen for each assay corresponds to the Kd concentration determined through saturation binding analysis for each assay.

SERT = test: Ex vivo binding occupancy assay, SERT ([3H]citalopram, brain tissue); conditions: dose 1 mg/kg, time point 3 hour, ex vivo binding in brain tissue
Excerpt: The general procedure for brain tissue collection and transporter occupancy assessment is briefly described as follows. Mice were sacrificed by asphyxiation in CO2, rats by decapitation and dogs by IV injection of euthanasia solution. For mice and rats, after the brains were removed from the skull, the forebrain tissue (removal of the brainstem and cerebellum) was used for SERT, NET, and DAT occupancy assessment. In dogs, the striatum was dissected for DAT occupancy and the remaining forebrain tissue (without the striatum, brainstem, and cerebellum) was used for SERT and NET occupancy assessment. The brain tissues were frozen in chilled isopentane and stored at −80° C. until homogenization.
The brain tissues were thawed and then homogenized using a polytron homogenizer (Kinematica). Sample aliquots were frozen immediately and stored at −80° C. Protein content was measured for each sample using a Coomassie protein assay kit (Pierce).
On the day of ex vivo binding for occupancy assessment, frozen sample aliquots were thawed and needle homogenized, and 100 μg of the tissue was incubated for SERT, NET, and DAT binding under assay conditions summarized in Table 1. […] Radioligand was measured using a Wallac Microbeta liquid scintillation counter.
The specific binding was calculated by subtracting the value of the non-specific binding from that of the total binding in each sample. […]

T3 sequence (P31645 whole entry): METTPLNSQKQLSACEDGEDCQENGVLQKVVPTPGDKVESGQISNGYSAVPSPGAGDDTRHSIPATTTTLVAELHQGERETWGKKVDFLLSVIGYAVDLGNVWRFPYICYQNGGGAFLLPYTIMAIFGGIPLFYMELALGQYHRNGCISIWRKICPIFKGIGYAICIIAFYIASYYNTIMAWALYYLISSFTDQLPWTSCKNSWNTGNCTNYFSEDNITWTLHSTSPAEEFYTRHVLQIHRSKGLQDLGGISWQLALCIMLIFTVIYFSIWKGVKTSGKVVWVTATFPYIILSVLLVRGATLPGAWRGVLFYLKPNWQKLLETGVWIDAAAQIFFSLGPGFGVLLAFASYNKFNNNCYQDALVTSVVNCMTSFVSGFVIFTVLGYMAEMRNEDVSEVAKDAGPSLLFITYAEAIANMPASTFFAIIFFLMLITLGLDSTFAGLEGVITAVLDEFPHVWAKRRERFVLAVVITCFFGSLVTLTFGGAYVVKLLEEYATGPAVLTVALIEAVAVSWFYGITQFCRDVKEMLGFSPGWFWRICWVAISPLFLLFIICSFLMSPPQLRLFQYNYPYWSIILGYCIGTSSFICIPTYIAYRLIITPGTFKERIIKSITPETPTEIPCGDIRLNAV
T1 sequence (P23975 whole entry): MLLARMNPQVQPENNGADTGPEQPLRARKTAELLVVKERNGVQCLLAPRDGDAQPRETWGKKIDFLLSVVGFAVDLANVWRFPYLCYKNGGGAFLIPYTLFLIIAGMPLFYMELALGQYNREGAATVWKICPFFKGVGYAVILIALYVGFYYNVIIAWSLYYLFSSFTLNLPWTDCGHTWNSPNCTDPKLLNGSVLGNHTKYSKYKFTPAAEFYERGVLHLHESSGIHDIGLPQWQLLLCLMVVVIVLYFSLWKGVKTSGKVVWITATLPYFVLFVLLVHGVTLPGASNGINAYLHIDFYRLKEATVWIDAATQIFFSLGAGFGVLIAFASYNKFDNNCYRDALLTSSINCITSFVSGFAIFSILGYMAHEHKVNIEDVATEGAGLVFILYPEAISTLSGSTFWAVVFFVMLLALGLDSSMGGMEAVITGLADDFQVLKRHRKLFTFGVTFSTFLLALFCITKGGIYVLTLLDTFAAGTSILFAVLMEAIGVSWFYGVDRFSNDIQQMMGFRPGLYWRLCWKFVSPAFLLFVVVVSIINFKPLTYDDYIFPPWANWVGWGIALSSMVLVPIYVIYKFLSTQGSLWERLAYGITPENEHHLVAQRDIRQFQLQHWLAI
T2 sequence (Q01959 whole entry): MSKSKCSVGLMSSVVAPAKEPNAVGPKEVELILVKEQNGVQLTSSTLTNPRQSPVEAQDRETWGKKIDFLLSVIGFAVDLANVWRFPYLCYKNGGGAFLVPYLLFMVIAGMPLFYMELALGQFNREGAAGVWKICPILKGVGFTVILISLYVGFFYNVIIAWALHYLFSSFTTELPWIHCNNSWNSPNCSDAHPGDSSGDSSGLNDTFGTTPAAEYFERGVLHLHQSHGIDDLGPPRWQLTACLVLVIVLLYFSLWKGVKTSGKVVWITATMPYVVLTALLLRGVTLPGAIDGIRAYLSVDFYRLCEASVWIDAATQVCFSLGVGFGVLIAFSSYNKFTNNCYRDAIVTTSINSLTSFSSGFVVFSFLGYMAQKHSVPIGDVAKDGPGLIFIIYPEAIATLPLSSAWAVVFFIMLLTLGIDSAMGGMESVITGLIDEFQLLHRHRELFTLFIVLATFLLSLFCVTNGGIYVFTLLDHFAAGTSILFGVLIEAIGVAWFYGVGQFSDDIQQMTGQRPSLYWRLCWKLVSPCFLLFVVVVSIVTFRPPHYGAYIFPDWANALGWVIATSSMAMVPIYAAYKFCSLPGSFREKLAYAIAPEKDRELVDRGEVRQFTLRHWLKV

Clc1ccc(C2CNCc3cc(-c4ccc5ncnn5c4)ccc32)cc1Cl (single isomer, unassigned; (-)) [Example 1 (−)-enantiomer, (−)-7-([1,2,4]triazolo[1,5-a]pyridin-6-yl)-4-(3,4-dichlorophenyl)-1,2,3,4-tetrahydroisoquinoline]
IC50 (hNET): 4.8 nM
IC50 (hDAT): 105 nM
IC50 (hSERT): 4.2 nM
SERT Occupancy % (SERT): 41%

Clc1ccc(C2CNCc3cc(-c4ccc5ncnn5c4)ccc32)cc1Cl (single isomer, unassigned; enantiomer 7) [Example 1 (+)-enantiomer, 7-([1,2,4]triazolo[1,5-a]pyridin-6-yl)-4-(3,4-dichlorophenyl)-1,2,3,4-tetrahydroisoquinoline, L-tartrate salt]
IC50 (hNET): 26 nM
IC50 (hDAT): 30.8 nM
IC50 (hSERT): 1.8 nM
SERT Occupancy % (SERT; L-tartrate salt): 75%
